Source: patent publication US20140377350A1, “BILAYER TABLET FORMULATIONS OF FLURBIPROFEN AND GLUCOSAMIN” (Sanovel Ilac Sanayi Ve Ticaret Anonim Sirketi, priority 2012, published 2014)

Key:
[1] = in-vitro release (dissolution) of the actives from the bilayer tablet, USP paddle method; format: physicochemical; conditions: 900 ml phosphate buffer pH 7.2, 37° C., 50 RPM
Protocol: Therefore, the release profiles of the actives are as follows; the maximum 40% of total amount of flurbiprofen is released in 2 hours and 50-80% in 6 hours and at least 75% in 8 hours in 900 ml of phosphate buffer at pH 7.2 at 37° C. using USP paddle method rotating at 50 RPM. Glucosamine is released immediately and minimum 75% of the total amount is dissolved in 60 min.

[2] = cited from earlier work

- total amount of flurbiprofen released ([1]; in 2 hours): ≤ 40%
- total amount of flurbiprofen released ([1]; in 6 hours): 50-80%
Structure (SMILES): CC(C(=O)O)c1ccc(-c2ccccc2)c(F)c1 (stereo not drawn) [flurbiprofen, Flurbiprofen]
- solubility in water [2]: practically insoluble
